Reference: patent US20240285670A1, “THERAPEUTIC TREATMENT OF TUMORS BY BLOCKING THE HEME SYNTHESIS-EXPORT AXIS” (Università degli Studi di Torino, priority 2021, published 2024)

System: BTECs
Assay: Activity of mitochondrial ETC complexes I-IV in BTECs
Format: cell-based, human
Conditions: FLVCR1a-silenced vs scramble shRNA BTECs
Text: Results were expressed as nmol NAD*/min/mg mitochondrial protein for complex I, nmol reduced cytochrome c/min/mg mitochondrial protein for complexes II-III, nmol oxidized cytochrome c/min/mg mitochondrial protein for complex IV. Data represent mean±SEM, n=3. For statistical analyses, an unpaired Student's t-test was used; *=p<0.05, **=p<0.01, *=p<0.001. […] Results are expressed as nmol/mg mitochondrial proteins. Data represent mean±SEM, n=3. For statistical analyses, an unpaired Student's t-test was used; *=p<0.05. […] Results are expressed as pmol CO2/h/mg protein. Data represent mean±SEM, n=3. For statistical analyses, an unpaired Student's t-test was used; **=p<0.01. […] Results were expressed as nmol NAD*/min/mg mitochondrial protein for complex I, nmol reduced cytochrome c/min/mg mitochondrial protein for complexes II-III, nmol oxidized cytochrome c/min/mg mitochondrial protein for complex IV. […] Results are expressed as nmol/mg mitochondrial proteins. […] Results are expressed as pmol CO2/h/mg protein. […] (H) TCA cycle enzymes activities are reported in boxes and expressed as mU/mg mitochondrial proteins. […] Results were expressed as nmol NAD^+/min/mg mitochondrial protein for complex I, nmol reduced cytochrome c/min/mg mitochondrial protein for complexes II-III, nmol oxidized cytochrome c/min/mg mitochondrial protein for complex IV. […] Results are expressed as nmol/mg mitochondrial proteins. […]

Substance: FLVCR1a shRNA: shRNA specifically down-regulating FLVCR1a without targeting FLVCR1b; pLKO.1 lentiviral clone TRCN0000059599, antisense SEQ ID No.: 2 (antisense TTGCTAATGATGCTGTACTGG; sense CCAGTACAGCATCATTAGCAA)
- activity of ETC complexes: enhanced activity of ETC complexes
